Patent US10428044B2, “3-amino-1,5,6,7-tetrahydro-4H-indol-4-ones” (Bayer Pharma Aktiengesellschaft, priority 2014, dated 2019)

Biological target: (recombinant) catalytic domain of human Bub1 (amino acids 704-1085) (Homo sapiens (Human), UniProt O43683)
Assay: Bub1 kinase assay (TR-FRET)
Assay type: biochemical
Conditions: ATP 10 μM final, peptide substrate 1 μM final, 60 min at 22° C., read-out: Biological Assay: Bub1 kinase assay median IC50
Outline: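 Compounds were serially diluted 1:3.4 from 2 mM DMSO stocks and incubated with the enzyme reaction for 60 min at 22° C. The reaction was stopped with EDTA, and biotinylated peptide phosphorylation was read by TR-FRET using Eu anti-mouse IgG, anti-phosphoserine antibody and streptavidin-XL665. IC50 was fitted by 4-parameter logistic to inhibition normalized to no-inhibitor and no-enzyme controls.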

Sequence of (recombinant) catalytic domain of human Bub1 (amino acids 704-1085) (O43683 704-1085): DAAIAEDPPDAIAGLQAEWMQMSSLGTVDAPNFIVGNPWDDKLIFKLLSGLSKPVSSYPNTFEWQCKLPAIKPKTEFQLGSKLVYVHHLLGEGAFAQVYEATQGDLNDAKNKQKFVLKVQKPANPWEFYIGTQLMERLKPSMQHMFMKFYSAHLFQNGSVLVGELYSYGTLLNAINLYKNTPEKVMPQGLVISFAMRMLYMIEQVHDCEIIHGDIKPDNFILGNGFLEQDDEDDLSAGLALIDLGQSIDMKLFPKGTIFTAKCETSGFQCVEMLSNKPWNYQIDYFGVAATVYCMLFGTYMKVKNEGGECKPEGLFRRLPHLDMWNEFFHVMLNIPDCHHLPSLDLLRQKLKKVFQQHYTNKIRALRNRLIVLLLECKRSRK

Compound	IC50 [nM]
CCc1ccccc1Nc1c(-c2ccncc2)[nH]c2c1C(=O)CC(C)(C)C2 [Example 84, 3-[(2-ethylphenyl)amino]-6,6-dimethyl-2-(pyridin-4-yl)-1,5,6,7-tetrahydro-4H-indol-4-one]	127
O=C(Nc1cc(-c2[nH]c3c(c2Nc2ccccc2)C(=O)CCC3)ccn1)c1nnn[nH]1 [Example 283, N-{4-[4-oxo-3-(phenylamino)-4,5,6,7-tetrahydro-1H-indol-2-yl]pyridin-2-yl}-1H-tetrazole-5-carboxamide]	18.9
CNC(=O)c1cccc(Nc2c(-c3ccncc3)[nH]c3c2C(=O)CC(C)(C)C3)c1 [Example 99, 3-{[6,6-dimethyl-4-oxo-2-(pyridin-4-yl)-4,5,6,7-tetrahydro-1H-indol-3-yl]amino}-N-methylbenzamide]	2210
O=C1CCCc2[nH]c(-c3ccnc(NCc4ccc(F)cc4)c3)c(Nc3ccccc3)c21 [Example 499, 2-{2-[(4-fluorobenzyl)amino]pyridin-4-yl}-3-(phenylamino)-1,5,6,7-tetrahydro-4H-indol-4-one]	830
O=C(COCc1ccccc1)Nc1cc(-c2[nH]c3c(c2Nc2ccccc2)C(=O)CCC3)ccn1 [Example 340, 2-(benzyloxy)-N-{4-[4-oxo-3-(phenylamino)-4,5,6,7-tetrahydro-1H-indol-2-yl]pyridin-2-yl}acetamide]	7.25
CC(C)COCC(=O)Nc1cc(-c2[nH]c3c(c2Nc2ccccc2)C(=O)CCC3)ccn1 [Example 331, 2-(2-methylpropoxy)-N-{4-[4-oxo-3-(phenylamino)-4,5,6,7-tetrahydro-1H-indol-2-yl]pyridin-2-yl}acetamide]	13
O=C(CN1CCCC1)Nc1cc(-c2[nH]c3c(c2Nc2ccccc2)C(=O)CCC3)ccn1 [Example 308, N-{4-[4-oxo-3-(phenylamino)-4,5,6,7-tetrahydro-1H-indol-2-yl]pyridin-2-yl}-2-(pyrrolidin-1-yl)acetamide]	234
CO/N=C1\CC(C)(C)Cc2[nH]c(-c3ccncc3)c(Nc3ccccc3)c21 [Example 471, 4-(methoxyimino)-6,6-dimethyl-N-phenyl-2-(pyridin-4-yl)-4,5,6,7-tetrahydro-1H-indol-3-amine]	4430
CC1(C)CC(=O)c2c([nH]c(-c3ccnc(O)c3)c2Nc2ccccc2)C1 [Example 469, 2-(2-hydroxypyridin-4-yl)-6,6-dimethyl-3-(phenylamino)-1,5,6,7-tetrahydro-4H-indol-4-one]	2160
CCn1c2c(c(Nc3ccccc3)c1-c1ccncc1)C(=O)CCC2 [Example 170, 1-ethyl-3-(phenylamino)-2-(pyridin-4-yl)-1,5,6,7-tetrahydro-4H-indol-4-one]	40.2
CC1(C)CC(=O)c2c([nH]c(-c3ccncc3)c2Nc2ccccc2-c2ccccc2)C1 [Example 160, 3-(biphenyl-2-ylamino)-6,6-dimethyl-2-(pyridin-4-yl)-1,5,6,7-tetrahydro-4H-indol-4-one]	204
CC1(C)CC(=O)c2c([nH]c(-c3ccncc3)c2Nc2ccc(C#N)cc2)C1 [Example 433, 4-{[6,6-dimethyl-4-oxo-2-(pyridin-4-yl)-4,5,6,7-tetrahydro-1H-indol-3-yl]amino}benzonitrile]	2930
O=C(COc1ccccc1)Nc1cc(-c2[nH]c3c(c2Nc2ccccc2)C(=O)CCC3)ccn1 [Example 337, N-{4-[4-oxo-3-(phenylamino)-4,5,6,7-tetrahydro-1H-indol-2-yl]pyridin-2-yl}-2-phenoxyacetamide]	22.9
CC1(C)CC(=O)c2c([nH]c(-c3ccncc3)c2Nc2cccc(-c3cccs3)c2)C1 [Example 420, 6,6-dimethyl-2-(pyridin-4-yl)-3-{[3-(thiophen-2-yl)phenyl]amino}-1,5,6,7-tetrahydro-4H-indol-4-one]	24.9
CC(C)(C)NC(=S)Nc1cc(-c2[nH]c3c(c2Nc2ccccc2)C(=O)CCC3)ccn1 [Example 396, 1-tert-butyl-3-{4-[4-oxo-3-(phenylamino)-4,5,6,7-tetrahydro-1H-indol-2-yl]pyridin-2-yl}thiourea]	2460
CCC1CC(=O)c2c([nH]c(-c3ccncc3)c2Nc2ccccc2)C1 (centres unmarked) [Example 28, 6-ethyl-3-(phenylamino)-2-(pyridin-4-yl)-1,5,6,7-tetrahydro-4H-indol-4-one]	5.93
O=C1CC(c2ccccc2)Cc2[nH]c(-c3ccncc3)c(Nc3ccccc3)c21 (centres unmarked) [Example 8, 6-Phenyl-3-phenylamino-2-(pyridin-4-yl)-1,5,6,7-tetrahydroindol-4-one]	22.1
CCNC(=S)Nc1cc(-c2[nH]c3c(c2Nc2ccccc2)C(=O)CCC3)ccn1 [Example 393, 1-ethyl-3-{4-[4-oxo-3-(phenylamino)-4,5,6,7-tetrahydro-1H-indol-2-yl]pyridin-2-yl}thiourea]	233
Cc1noc(COCC(=O)Nc2cc(-c3[nH]c4c(c3Nc3ccccc3)C(=O)CCC4)ccn2)n1 [Example 349, 2-[(3-methyl-1,2,4-oxadiazol-5-yl)methoxy]-N-{4-[4-oxo-3-(phenylamino)-4,5,6,7-tetrahydro-1H-indol-2-yl]pyridin-2-yl}acetamide]	8.19
CC1CC1C(=O)Nc1cc(-c2[nH]c3c(c2Nc2ccccc2)C(=O)CCC3)ccn1 (centres unmarked) [Example 237, 2-methyl-N-{4-[4-oxo-3-(phenylamino)-4,5,6,7-tetrahydro-1H-indol-2-yl]pyridin-2-yl}cyclopropanecarboxamide]	13.2
O=C(Nc1cc(-c2[nH]c3c(c2Nc2ccccc2)C(=O)CCC3)ccn1)c1nccs1 [Example 270, N-{4-[4-oxo-3-(phenylamino)-4,5,6,7-tetrahydro-1H-indol-2-yl]pyridin-2-yl}-1,3-thiazole-2-carboxamide]	29.4
CN[C@@H](C)C(=O)Nc1cc(-c2[nH]c3c(c2Nc2ccccc2)C(=O)CCC3)ccn1 [Example 304, N^2-methyl-N-{4-[4-oxo-3-(phenylamino)-4,5,6,7-tetrahydro-1H-indol-2-yl]pyridin-2-yl}-L-alaninamide]	174
CC1(C)CC(=O)c2c([nH]c(-c3ccnc(S(N)(=O)=O)c3)c2Nc2ccccc2)C1 [Example 439, 4-[6,6-dimethyl-4-oxo-3-(phenylamino)-4,5,6,7-tetrahydro-1H-indol-2-yl]pyridine-2-sulfonamide]	649

Continued by falling IC50, values first:

IC50 [nM]	Compound
14500	CC1(C)CC(=O)c2c([nH]c(-c3ccnc(N4CCCC4)c3)c2Nc2ccccc2)C1 [Example 126, 6,6-dimethyl-3-(phenylamino)-2-[2-(pyrrolidin-1-yl)pyridin-4-yl]-1,5,6,7-tetrahydro-4H-indol-4-one]
449	CC1(C)CC(=O)c2c([nH]c(-c3ccnnc3)c2Nc2ccccc2)C1 [Example 55, 6,6-dimethyl-3-(phenylamino)-2-(pyridazin-4-yl)-1,5,6,7-tetrahydro-4H-indol-4-one]
292	CCCNC(=S)Nc1cc(-c2[nH]c3c(c2Nc2ccccc2)C(=O)CCC3)ccn1 [Example 399, 1-{4-[4-oxo-3-(phenylamino)-4,5,6,7-tetrahydro-1H-indol-2-yl]pyridin-2-yl}-3-propylthiourea]
142	Cn1ccnc1CC(=O)Nc1cc(-c2[nH]c3c(c2Nc2ccccc2)C(=O)CCC3)ccn1 [Example 463, N-[4-(3-anilino-4-oxo-4,5,6,7-tetrahydro-1H-indol-2-yl)pyridin-2-yl]-2-(1-methyl-1H-imidazol-2-yl)acetamide]
102	CC(=O)O/N=C1\CC(C)(C)Cc2[nH]c(-c3ccncc3)c(Nc3ccccc3)c21 [Example 195, 1-({(E)-[6,6-dimethyl-3-(phenylamino)-2-(pyridin-4-yl)-1,5,6,7-tetrahydro-4H-indol-4-ylidene]amino}oxy)ethanone]
96.7	O=C1CCCc2[nH]c(-c3ccnc(NCc4cscn4)c3)c(Nc3ccccc3)c21 [Example 501, 3-(phenylamino)-2-{2-[(1,3-thiazol-4-ylmethyl)amino]pyridin-4-yl}-1,5,6,7-tetrahydro-4H-indol-4-one]
42.6	CC1(C)CC(=O)c2c([nH]c(-c3ccnc(Nc4cnn(Cc5ccccc5)c4)c3)c2Nc2ccccc2)C1 [Example 204, 2-{2-[(1-benzyl-1H-pyrazol-4-yl)amino]pyridin-4-yl}-6,6-dimethyl-3-(phenylamino)-1,5,6,7-tetrahydro-4H-indol-4-one]
31	CC1(C)CC(=O)c2c([nH]c(-c3ccnc4[nH]ncc34)c2Nc2ccccc2)C1 [Example 34, 6,6-dimethyl-3-(phenylamino)-2-(1H-pyrazolo[3,4-b]pyridin-4-yl)-1,5,6,7-tetrahydro-4H-indol-4-one]
19.8	O=C(COc1ccsc1)Nc1cc(-c2[nH]c3c(c2Nc2ccccc2)C(=O)CCC3)ccn1 [Example 344, N-{4-[4-oxo-3-(phenylamino)-4,5,6,7-tetrahydro-1H-indol-2-yl]pyridin-2-yl}-2-(thiophen-3-yloxy)acetamide]
10.3	O=C(Nc1cc(-c2[nH]c3c(c2Nc2ccccc2)C(=O)CCC3)ccn1)c1ccns1 [Example 280, N-{4-[4-oxo-3-(phenylamino)-4,5,6,7-tetrahydro-1H-indol-2-yl]pyridin-2-yl}-1,2-thiazole-5-carboxamide]
5.04	CC1(C)CC(=O)c2c([nH]c(-c3ccnc(NC(=O)c4cnn(C(C)(C)C)c4)c3)c2Nc2ccccc2)C1 [Example 472, 1-tert-butyl-N-{4-[6,6-dimethyl-4-oxo-3-(phenylamino)-4,5,6,7-tetrahydro-1H-indol-2-yl]pyridin-2-yl}-1H-pyrazole-4-carboxamide]
4.23	CC1(C)CC(=O)c2c([nH]c(-c3ccnc(NC(=O)c4cnn(Cc5ccccc5)c4)c3)c2Nc2ccccc2)C1 [Example 478, 1-benzyl-N-{4-[6,6-dimethyl-4-oxo-3-(phenylamino)-4,5,6,7-tetrahydro-1H-indol-2-yl]pyridin-2-yl}-1H-pyrazole-4-carboxamide]
